This is an account of results in PubChem BioAssay AID248 (DTP/NCI, 2004).

Values joined by “and” are separate entries in the source; they are usually repeats but may differ in a detail not shown here. Identical values can stand only once. Inconclusive results and toxic doses are left out.

For the experiment, the system named is L1210 leukemia ip in BDF1 mice, survival T/C. The experiment in a line: NCI In Vivo Anticancer Drug Screen. Data for tumor model L1210 Leukemia (intraperitoneal) in B6D2F1 (BDF1) mice. To be noted: endpoint: mean survival time, higher = longer survival. The method, boiled down: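 In this screen, tumor-bearing mice given compound are compared to those given vehicle, and their survival values are reported as a treated-to-control quotient.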

Where [1] appears, read: dose: 50.0 mg/kg/injection, schedule: Q01DX001 (ip), vehicle: carboxymethylcellulose (CMC).
[2] abbreviates: dose: 100.0 mg/kg/injection, schedule: Q01DX001 (ip), vehicle: carboxymethylcellulose (CMC).
The mark [3] stands for this setting: dose: 100.0 mg/kg/injection, schedule: Q01DX009 (ip), vehicle: saline with Tween-80.
Where [4] appears, read: dose: 100.0 mg/kg/injection, schedule: Q01DX001 (ip), vehicle: saline.
Setting [5] is: dose: 200.0 mg/kg/injection, schedule: Q01DX001 (ip), vehicle: saline.
[6] abbreviates: dose: 400.0 mg/kg/injection, schedule: Q01DX001 (ip), vehicle: saline.
[7] abbreviates: dose: 25.0 mg/kg/injection, schedule: Q01DX001 (ip), vehicle: Klucel (hydroxypropylcellulose) (HPC).
The mark [8] stands for this setting: dose: 50.0 mg/kg/injection, schedule: Q01DX001 (ip), vehicle: Klucel (hydroxypropylcellulose) (HPC).

Consider `NC(N)=NCC1COc2ccccc2O1` (configuration not stated), for which the T/C runs as follows: (dose: 25.0 mg/kg/injection, schedule: Q01DX001 (ip), vehicle: carboxymethylcellulose (CMC)) 103 % of control; under setting [1], 106 % of control; under setting [2], 108 % of control.
Turning to `Cc1c(NC(=O)Nc2ccc(C3=NCCCN3)cc2)cccc1NC(=O)Nc1ccc(C2=NCCCN2)cc1`, the T/C reads like this: (dose: 4.0 mg/kg/injection, schedule: Q01DX Z (ip), vehicle: water) 96 % of control; (dose: 6.0 mg/kg/injection, schedule: Q01DX Z (ip), vehicle: water) 121 % of control; (dose: 8.0 mg/kg/injection, schedule: Q01DX Z (ip), vehicle: water) 109 % of control; (dose: 25.0 mg/kg/injection, schedule: Q01DX Z (ip), vehicle: water) 215 % of control; (dose: 31.0 mg/kg/injection, schedule: Q01DX Z (oral), vehicle: water) 113 % of control; (dose: 50.0 mg/kg/injection, schedule: Q01DX Z (ip), vehicle: water) 162 % of control. Also, the T/C was 191 % of control (dose: 100.0 mg/kg/injection, schedule: Q01DX Z (ip), vehicle: water) and 108 % of control (dose: 125.0 mg/kg/injection, schedule: Q01DX Z (oral), vehicle: water).
Regarding `Cc1c(NC(=O)Nc2ccccc2C(F)(F)F)c(=O)n(-c2ccccc2)n1C`, the T/C was 104 % of control under setting [3]; 98 % of control (dose: 200.0 mg/kg/injection, schedule: Q01DX009 (ip), vehicle: saline with Tween-80); 91 % of control (dose: 400.0 mg/kg/injection, schedule: Q01DX009 (ip), vehicle: saline with Tween-80).
As to `c1ccc(C2c3cccc4c3C3c5c2cccc5C(c2ccccc2)c2cccc(c23)C4c2ccccc2)cc1` (configuration not stated), the T/C is 108 % of control (dose: 100.0 mg/kg/injection, schedule: Q04DX003 (ip), vehicle: saline with Tween-80); 95 % of control (dose: 200.0 mg/kg/injection, schedule: Q04DX003 (ip), vehicle: saline with Tween-80); 100 % of control (dose: 400.0 mg/kg/injection, schedule: Q04DX003 (ip), vehicle: saline with Tween-80).
As for `OC1c2ccccc2-c2ccc(Cl)cc21` (configuration not stated), the T/C was 97 % of control (dose: 25.0 mg/kg/injection, schedule: Q01DX009 (ip), vehicle: saline with Tween-80); 106 % of control (dose: 50.0 mg/kg/injection, schedule: Q01DX009 (ip), vehicle: saline with Tween-80); 100 % of control and 90 % of control under setting [3].
Take `Cc1cc(=O)c2cccc(-c3ccccc3)c2[nH]1`: the T/C was 95 % of control (dose: 25.0 mg/kg/injection, schedule: Q01DX009 (ip), vehicle: acetone); 101 % of control (dose: 25.0 mg/kg/injection, schedule: Q04DX003 (ip), vehicle: saline); 92 % of control (dose: 50.0 mg/kg/injection, schedule: Q01DX009 (ip), vehicle: acetone); 100 % of control (dose: 50.0 mg/kg/injection, schedule: Q04DX003 (ip), vehicle: saline); 92 % of control (dose: 100.0 mg/kg/injection, schedule: Q01DX009 (ip), vehicle: acetone); 100 % of control (dose: 100.0 mg/kg/injection, schedule: Q04DX003 (ip), vehicle: saline). Further, the T/C (dose: 200.0 mg/kg/injection, schedule: Q04DX003 (ip), vehicle: saline) is 96 % of control.
`Nc1ccc(N=Nc2ccc(S(N)(=O)=O)cc2)cn1`: the T/C is 97 % of control (dose: 50.0 mg/kg/injection, schedule: Q01DX001 (ip), vehicle: other); 94 % of control (dose: 100.0 mg/kg/injection, schedule: Q01DX001 (ip), vehicle: other); 103 % of control (dose: 200.0 mg/kg/injection, schedule: Q01DX001 (ip), vehicle: other); 100 % of control (dose: 400.0 mg/kg/injection, schedule: Q01DX001 (ip), vehicle: other).
On to `COc1cc(OC(C)=O)c2ncccc2c1OC(C)=O`, for which the T/C under setting [4] is 94 % of control.
With `COc1ccc(C(=O)/C(C)=N/O)cc1`, the T/C is 103 % of control under setting [4], 103 % of control under setting [5] and 101 % of control under setting [6].
As to `CCCCCCCCCCCCCCSCCSCCSCCCCCCCCCCCCCC`, the T/C (dose: 12.5 mg/kg/injection, schedule: Q01DX001 (ip), vehicle: Klucel (hydroxypropylcellulose) (HPC)) is 103 % of control; the T/C under setting [7] is 97 % of control; the T/C under setting [8] is 89 % of control; the T/C (dose: 400.0 mg/kg/injection, schedule: Q01DX001 (ip), vehicle: Klucel (hydroxypropylcellulose) (HPC)) was 87 % of control.
Regarding `CCc1nc(N[N+](=O)[O-])nc(N)c1-c1ccccc1O`, the T/C by setting is: (dose: 50.0 mg/kg/injection, schedule: Q04DX002 (ip), vehicle: Klucel (hydroxypropylcellulose) (HPC)) 97 % of control; (dose: 100.0 mg/kg/injection, schedule: Q04DX002 (ip), vehicle: Klucel (hydroxypropylcellulose) (HPC)) 93 % of control and 111 % of control; (dose: 200.0 mg/kg/injection, schedule: Q04DX002 (ip), vehicle: Klucel (hydroxypropylcellulose) (HPC)) 97 % of control; (dose: 400.0 mg/kg/injection, schedule: Q04DX002 (ip), vehicle: Klucel (hydroxypropylcellulose) (HPC)) 90 % of control.
Turning to `CS(=O)(=O)OCCN(CCO)c1cn(C(c2ccccc2)(c2ccccc2)c2ccccc2)c(=O)n(C(c2ccccc2)(c2ccccc2)c2ccccc2)c1=O`, the T/C (dose: 50.0 mg/kg/injection, schedule: Q01DX001 (ip), vehicle: saline) is 94 % of control; the T/C under setting [4] is 105 % of control; the T/C under setting [5] was 97 % of control; the T/C under setting [6] is 103 % of control.
Turning to `CCOC(=O)C1(C(C)C)OC2(O)C3CCCN3C(=O)C(C(C)C)N2C1=O` (configuration not stated), the T/C is 98 % of control (dose: 3.12 mg/kg/injection, schedule: Q03HX024 (ip), vehicle: Klucel (hydroxypropylcellulose) (HPC)); 97 % of control (dose: 6.25 mg/kg/injection, schedule: Q03HX024 (ip), vehicle: Klucel (hydroxypropylcellulose) (HPC)); 97 % of control (dose: 8.25 mg/kg/injection, schedule: Q01DX009 (ip), vehicle: Klucel (hydroxypropylcellulose) (HPC)); 98 % of control (dose: 12.5 mg/kg/injection, schedule: Q01DX009 (ip), vehicle: Klucel (hydroxypropylcellulose) (HPC)); 98 % of control (dose: 12.5 mg/kg/injection, schedule: Q03HX024 (ip), vehicle: Klucel (hydroxypropylcellulose) (HPC)); 99 % of control (dose: 16.5 mg/kg/injection, schedule: Q01DX009 (ip), vehicle: Klucel (hydroxypropylcellulose) (HPC)). In addition, the T/C by setting is: under setting [7], 95 % of control; (dose: 25.0 mg/kg/injection, schedule: Q01DX009 (ip), vehicle: Klucel (hydroxypropylcellulose) (HPC)) 109 % of control; (dose: 25.0 mg/kg/injection, schedule: Q03HX024 (ip), vehicle: Klucel (hydroxypropylcellulose) (HPC)) 100 % of control; (dose: 25.0 mg/kg/injection, schedule: Q04DX003 (ip), vehicle: alcohol) 97 % of control; (dose: 33.0 mg/kg/injection, schedule: Q01DX009 (ip), vehicle: Klucel (hydroxypropylcellulose) (HPC)) 100 % of control; under setting [8], 101 % of control. Also, the T/C (dose: 50.0 mg/kg/injection, schedule: Q01DX009 (ip), vehicle: Klucel (hydroxypropylcellulose) (HPC)) was 105 % of control; the T/C (dose: 50.0 mg/kg/injection, schedule: Q03HX024 (ip), vehicle: Klucel (hydroxypropylcellulose) (HPC)) was 93 % of control; the T/C (dose: 50.0 mg/kg/injection, schedule: Q04DX003 (ip), vehicle: alcohol) was 106 % of control; the T/C (dose: 66.0 mg/kg/injection, schedule: Q01DX009 (ip), vehicle: Klucel (hydroxypropylcellulose) (HPC)) is 98 % of control; the T/C (dose: 100.0 mg/kg/injection, schedule: Q01DX001 (ip), vehicle: Klucel (hydroxypropylcellulose) (HPC)) was 95 % of control; the T/C (dose: 100.0 mg/kg/injection, schedule: Q01DX009 (ip), vehicle: Klucel (hydroxypropylcellulose) (HPC)) was 100 % of control. The T/C is, setting by setting: (dose: 100.0 mg/kg/injection, schedule: Q04DX003 (ip), vehicle: alcohol) 96 % of control; (dose: 200.0 mg/kg/injection, schedule: Q01DX001 (ip), vehicle: Klucel (hydroxypropylcellulose) (HPC)) 104 % of control; (dose: 200.0 mg/kg/injection, schedule: Q01DX009 (ip), vehicle: Klucel (hydroxypropylcellulose) (HPC)) 98 % of control; (dose: 200.0 mg/kg/injection, schedule: Q04DX003 (ip), vehicle: alcohol) 98 % of control.
In the case of `CC(C)C(CCCC(=O)O)C(=O)O` (configuration not stated), the T/C was 96 % of control under setting [1]; 96 % of control under setting [2]; 96 % of control (dose: 200.0 mg/kg/injection, schedule: Q01DX001 (ip), vehicle: carboxymethylcellulose (CMC)).
